# Structures can show the parent of a compound that is named as a salt.
# Test system: spiral strips of the arteria pulmonalis of the guinea pig
# Assay: Relaxing action on K+-depolarized, CaCl2-contracted spiral strips of guinea pig arteria pulmonalis (modified method of Godfraind and Kaba and of Schumann et al.)
# Conditions: Cavia porcellus; depolarized with 40 mmol/l potassium in calcium-free Tyrode solution; contraction by 0.5 mmol/l CaCl2; cumulative addition; mean value of 4 to 6 strips of vessel; read-out: IC50: concentration of test substance which inhibits the contraction by 50%
# Description: The pharmacological action of the compound of the formula I has been determined by a modified method of Godfraind and Kaba (Arch. Int. Pharmacodyn. Ther. 196, (Suppl) 35 to 49, 1972) and of Schumann et al. (Naunyn-Schmiedeberg's Arch. Pharmacol. 289, 409 to 418, 1975). In this method, spiral strips of the arteria pulmonalis of the guinea pig are depolarized with 40 mmol/l of potassium after equilibration in calcium-free Tyrode solution. Addition of 0.5 mmol/l of CaCl2 then induces a contraction. The relaxing action of the test substance is determined by cumulative addition of concentrations graduated in 1/2 log 10. The concentration of test substance which inhibits the contraction by 50% (=IC50, mol/l) is determined from the concentration/ effect curve (abscissa: -log mol/l of test substance, ordinate: % inhibition of the maximum contraction, mean value of 4 to 6 strips of vessel). The IC50 values thus obtained are stated in the following table.
row,IC50,Compound
1,2 µM,"CCN[n+]1cc(=N)o[n-]1 [Example 2, 3-Ethylamino-sydnonimine hydrochloride]"
2,2 µM,"N=c1c[n+](NC2CCCCC2)[n-]o1 [Example 4e, 3-Cyclohexylamino-sydnonimine hydrochloride]"
3,> 100 µM,"CCOC(=O)[N-]c1cn(N2CCOCC2)n[o+]1 [Molsidomine, N-ethoxycarbonyl-3-morpholino-sydnonimine, reference compound]"
4,2 µM,"N=c1c[n+](NCCO)[n-]o1 [Example 1a, 3-(2-Hydroxyethylamino)-sydnonimine hydrochloride]"
5,1 µM,"N=c1c[n+](NC2CCCCC2O)[n-]o1 (centres unmarked) [Example 5b, 3-(2-Hydroxycyclohexyl-amino)-sydnonimine hydrochloride]"
